# Results: ChEMBL document CHEMBL1781926, “Synthesis of 1-naphtylpiperazine derivatives as serotoninergic ligands and their evaluation as antiproliferative agents” (Eur J Med Chem, 2011)
# Active and inactive are the calls of the source. The rule behind the calls is not given here.
# Assays:
# [1] = target: T1, Adrenergic receptor alpha-2 (Rattus norvegicus, UniProt P22086+P19328+P22909); experiment: Displacement [3H]yohimbine from alpha 2 adrenergic receptor in rat brain cortex homogenates after 30 mins by liquid scintillation counting; type: tissue-based
# T1 sequence (P22086 whole entry): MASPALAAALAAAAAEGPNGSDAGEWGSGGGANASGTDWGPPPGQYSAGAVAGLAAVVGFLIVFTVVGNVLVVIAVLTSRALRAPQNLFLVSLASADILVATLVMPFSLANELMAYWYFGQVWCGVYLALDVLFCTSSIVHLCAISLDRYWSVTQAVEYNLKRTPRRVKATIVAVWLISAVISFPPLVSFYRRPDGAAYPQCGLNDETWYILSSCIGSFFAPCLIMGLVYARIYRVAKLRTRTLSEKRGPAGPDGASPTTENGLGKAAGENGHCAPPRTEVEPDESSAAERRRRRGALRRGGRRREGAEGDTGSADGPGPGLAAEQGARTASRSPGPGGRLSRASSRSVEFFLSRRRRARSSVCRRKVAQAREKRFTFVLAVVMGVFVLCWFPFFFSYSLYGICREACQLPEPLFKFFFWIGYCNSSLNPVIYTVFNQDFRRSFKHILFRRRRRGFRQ
# T1 sequence (P19328 whole entry): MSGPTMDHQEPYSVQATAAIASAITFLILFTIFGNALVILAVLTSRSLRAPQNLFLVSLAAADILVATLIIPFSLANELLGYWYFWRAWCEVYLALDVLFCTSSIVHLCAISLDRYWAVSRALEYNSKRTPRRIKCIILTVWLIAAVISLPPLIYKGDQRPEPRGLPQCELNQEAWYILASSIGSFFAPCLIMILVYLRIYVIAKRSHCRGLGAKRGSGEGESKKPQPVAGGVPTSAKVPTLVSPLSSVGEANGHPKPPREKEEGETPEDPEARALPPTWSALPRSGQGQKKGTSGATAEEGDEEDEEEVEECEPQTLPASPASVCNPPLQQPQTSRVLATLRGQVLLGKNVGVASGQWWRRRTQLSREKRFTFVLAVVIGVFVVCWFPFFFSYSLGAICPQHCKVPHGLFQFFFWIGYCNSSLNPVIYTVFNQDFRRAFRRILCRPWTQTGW
# T1 sequence (P22909 whole entry): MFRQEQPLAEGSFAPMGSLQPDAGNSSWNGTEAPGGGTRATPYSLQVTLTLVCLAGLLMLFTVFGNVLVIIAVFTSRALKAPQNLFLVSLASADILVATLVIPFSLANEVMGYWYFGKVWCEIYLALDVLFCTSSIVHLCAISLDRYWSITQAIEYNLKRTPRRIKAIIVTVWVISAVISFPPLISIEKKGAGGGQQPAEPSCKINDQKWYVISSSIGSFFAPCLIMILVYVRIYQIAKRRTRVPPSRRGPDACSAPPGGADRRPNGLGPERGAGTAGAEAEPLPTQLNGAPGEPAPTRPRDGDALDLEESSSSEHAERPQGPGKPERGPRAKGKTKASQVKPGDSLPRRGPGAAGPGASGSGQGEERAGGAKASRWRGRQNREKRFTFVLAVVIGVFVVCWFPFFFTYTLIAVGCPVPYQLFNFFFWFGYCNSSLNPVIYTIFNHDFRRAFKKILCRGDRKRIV
# [2] = target: D(2) dopamine receptor (Rattus norvegicus, UniProt P61169); experiment: Displacement of [3H]spiperone from dopamine D2 receptor in rat corpora striatum homogenates after 15 mins by liquid scintillation counting
# [3] = target: D(1A) dopamine receptor (Rattus norvegicus, UniProt P18901); experiment: Displacement of [3H]SCH 23390 from dopamine D1 receptor in rat corpora striatum homogenates after 15 mins by liquid scintillation counting
# [4] = tested on: PC-3; experiment: Antiproliferative activity against human PC3 cells assessed as growth inhibition after 96 hrs by SRB assay; type: functional, cell-based; conditions: for IC50: PC-3, 96 h
# [5] = tested on: PC-3; experiment: Cell cycle arrest in human PC3 cells assessed as accumulation at S phase at 15 uM after 48 hrs using propidium iodide staining by flow cytometry (reference value: 38.16 %); type: functional
# [6] = tested on: PC-3; experiment: Cell cycle arrest in human PC3 cells assessed as accumulation at G1 phase at 15 uM after 72 hrs using propidium iodide staining by flow cytometry (reference value: 42.19 %); type: functional
# [7] = tested on: PC-3; experiment: Cell cycle arrest in human PC3 cells assessed as accumulation at G2 phase at 15 uM after 72 hrs using propidium iodide staining by flow cytometry (reference value: 20.18 %); type: functional
# [8] = tested on: PC-3; experiment: Induction of apoptosis in human PC3 cells at 15 uM after 48 hrs using propidium iodide staining by flow cytometry (reference value: 0.84 %); type: functional
# [9] = tested on: PC-3; experiment: Cell cycle arrest in human PC3 cells assessed as accumulation at S phase at 15 uM after 24 hrs using propidium iodide staining by flow cytometry (reference value: 34.84 %); type: functional
# [10] = tested on: PC-3; experiment: Cell cycle arrest in human PC3 cells assessed as accumulation at S phase at 15 uM after 72 hrs using propidium iodide staining by flow cytometry (reference value: 37.73 %); type: functional
# [11] = tested on: PC-3; experiment: Induction of apoptosis human PC3 cells assessed as externalization of phosphatidylserine on the outer layer of plasma membrane at 15 uM after 24 to 48 hrs using Annexin-V-FITC staining by flow cytometry; type: functional, cell-based
# [12] = tested on: PC-3; experiment: Induction of apoptosis in human PC3 cells at 15 uM after 72 hrs using propidium iodide staining by flow cytometry (reference value: 1.79 %); type: functional
# [13] = tested on: PC-3; experiment: Cell cycle arrest in human PC3 cells assessed as accumulation at G1 phase at 15 uM after 24 hrs using propidium iodide staining by flow cytometry (reference value: 46.97 %); type: functional
# [14] = tested on: PC-3; experiment: Induction of apoptosis in human PC3 cells at 15 uM after 24 hrs using propidium iodide staining by flow cytometry (reference value: 1.27 %); type: functional
# [15] = tested on: PC-3; experiment: Cell cycle arrest in human PC3 cells assessed as accumulation at G2 phase at 15 uM after 24 hrs using propidium iodide staining by flow cytometry (reference value: 18.19 %); type: functional
# [16] = tested on: PC-3; experiment: Cell cycle arrest in human PC3 cells assessed as accumulation at G1 phase at 15 uM after 48 hrs using propidium iodide staining by flow cytometry (reference value: 54.14 %); type: functional
# [17] = tested on: PC-3; experiment: Cell cycle arrest in human PC3 cells assessed as accumulation at G2 phase at 15 uM after 48 hrs using propidium iodide staining by flow cytometry (reference value: 13.36 %); type: functional
# D(2) dopamine receptor, sequence (P61169 whole entry): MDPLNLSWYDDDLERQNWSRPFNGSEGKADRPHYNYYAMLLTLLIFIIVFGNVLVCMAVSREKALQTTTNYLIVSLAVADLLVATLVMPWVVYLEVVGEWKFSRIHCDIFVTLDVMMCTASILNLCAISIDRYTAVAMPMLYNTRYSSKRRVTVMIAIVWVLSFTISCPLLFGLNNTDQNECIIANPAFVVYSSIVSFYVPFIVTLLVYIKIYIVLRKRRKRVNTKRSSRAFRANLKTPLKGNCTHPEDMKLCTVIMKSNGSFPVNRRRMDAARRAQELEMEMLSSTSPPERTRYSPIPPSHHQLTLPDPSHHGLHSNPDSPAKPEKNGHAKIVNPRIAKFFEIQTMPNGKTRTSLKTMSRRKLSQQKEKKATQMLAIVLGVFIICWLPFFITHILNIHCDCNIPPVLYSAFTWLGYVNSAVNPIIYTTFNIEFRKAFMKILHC
# D(1A) dopamine receptor, sequence (P18901 whole entry): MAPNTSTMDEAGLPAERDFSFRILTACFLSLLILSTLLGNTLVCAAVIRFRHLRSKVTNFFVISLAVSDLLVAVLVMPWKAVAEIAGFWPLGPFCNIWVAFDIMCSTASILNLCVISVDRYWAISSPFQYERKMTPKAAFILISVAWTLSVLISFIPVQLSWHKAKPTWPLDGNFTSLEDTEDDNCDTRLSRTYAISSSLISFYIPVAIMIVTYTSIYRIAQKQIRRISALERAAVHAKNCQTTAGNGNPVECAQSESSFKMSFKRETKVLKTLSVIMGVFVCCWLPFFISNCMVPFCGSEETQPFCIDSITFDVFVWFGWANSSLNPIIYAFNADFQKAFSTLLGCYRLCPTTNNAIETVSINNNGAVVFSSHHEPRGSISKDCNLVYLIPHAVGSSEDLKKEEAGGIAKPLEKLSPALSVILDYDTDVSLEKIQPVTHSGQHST
Ki [1],Ki [2],Ki [3],IC50 [4],Compound,growth inhibition (GI) [4],Activity [5],Activity [6],Activity [7],Activity [8],Activity [9],Activity [10],Activity [11],Activity [12],Activity [13],Activity [14],Activity [15],Activity [16],Activity [17]
1.2 µM,> 10 µM,> 10 µM,47.7 µM,O=C1C2C3C=CC(C3)C2C(=O)N1OCCN1CCN(c2cccc3ccccc23)CC1 (configuration not stated),–,–,–,–,–,–,–,–,–,–,–,–,–,–
0.189 µM,0.263 µM,> 10 µM,13 µM,O=C1C2C3C=CC(C3)C2C(=O)N1OCCCN1CCN(c2cccc3ccccc23)CC1 (configuration not stated),Dose-dependent effect,–,–,–,–,–,–,–,–,–,–,–,–,–
> 10 µM,> 10 µM,> 10 µM,23.8 µM,N#C/N=C(\NCCCN1CCN(c2cccc3ccccc23)CC1)c1ccccn1,–,–,–,–,–,–,–,–,–,–,–,–,–,–
3.6 µM,> 10 µM,> 10 µM,10.5 µM,O=c1c2ccccc2nnn1CCCN1CCN(c2cccc3ccccc23)CC1,Dose-dependent effect,33.58%,43.11%,28.65%,2.12%,35.15%,28.24%,Active,2.25%,37.55%,1.71%,27.3%,44.13%,22.29%
1.88 µM,> 10 µM,> 10 µM,10.6 µM,O=c1c2ccccc2nnn1CCN1CCN(c2cccc3ccccc23)CC1,Dose-dependent effect,34.56%,45.86%,24.19%,2.79%,37.45%,29.95%,Active,2.17%,38.38%,2.17%,24.17%,41.36%,24.08%
> 10 µM,> 10 µM,> 10 µM,–,O=c1c2ccccc2nnn1OCCN1CCN(c2cccc3ccccc23)CC1,inactive,–,–,–,–,–,–,–,–,–,–,–,–,–
> 10 µM,0.0854 µM,> 10 µM,12.3 µM,O=c1c2ccccc2nnn1OCCCN1CCN(c2cccc3ccccc23)CC1,–,–,–,–,–,–,–,–,–,–,–,–,–,–
